Results as given in patent US12677830B2, “3-alkoxybenzamide derivative, and pest control agent” (Kumiai Chemical Industry Co., Ltd., priority 2020, dated 2026).

Tests used:
Assay type in all cases: in vivo
[1] = test system: Tetranychus urticae; assay: Test for control effect against Tetranychus urticae (soybean seedling dip); settings: 312 h, 500 ppm active ingredient (wettable powder in water), soybean seedling inoculated with 35 female adults immersed, 25° C., 13 days after the treatment, read-out: controlling value
Method: [Test Example 5] Test for Control Effect Against Tetranychus urticae
The wettable powder prepared in accordance with Formulation Example 2 was diluted with water to a concentration of 500 ppm as an active ingredient. A soybean seedling previously inoculated with 35 female adults of Tetranychus urticae was immersed in the chemical solution, and air-dried. The treated soybean seedling was placed in a room at constant temperature of 25° C. The number of surviving female adults was examined at 13 days after the treatment, and the controlling value was determined by the calculation formula of Equation 2. The number of replicate is one in each test.
The compound numbers of the compounds showing a controlling value of 90 or more in this test are listed below.

[2] = test system: Nilaparvata lugens; assay: Test for insecticidal activity against Nilaparvata lugens (rice sprout dip); settings: 144 h, 500 ppm active ingredient (wettable powder in water), rice sprouts immersed, ten second instar larvae, 25° C., 6 days after the treatment, read-out: mortality rate
Method: [Test Example 3] Test for Insecticidal Activity Against Nilaparvata lugens
The wettable powder prepared in accordance with Formulation Example 2 was diluted with water to a concentration of 500 ppm as an active ingredient. The rice sprouts were immersed in the chemical solution, and placed in a plastic cup. Ten second instar larvae of Nilaparvata lugens were released into the plastic cup, and the cup was capped. Thereafter, the cup was placed in a room at constant temperature of 25° C. The number of dead insects was examined at 6 days after the treatment, and the mortality rate was calculated by the calculation formula of Equation 1. The number of replicate is one in each test.
(§1) The compound numbers of the compounds showing a mortality rate of 90% or more in this test are listed below.

[3] = test system: Plutella xylostella; assay: Test for insecticidal activity against Plutella xylostella (cabbage leaf dip); settings: foliar, 144 h, 500 ppm active ingredient (wettable powder in water), cabbage leaves immersed, ten second instar larvae, 25° C., 6 days after the treatment, read-out: mortality rate
Method: [Test Example 1] Test for Insecticidal Activity Against Plutella xylostella
(§2) The wettable powder prepared in accordance with Formulation Example 2 was diluted with water to a concentration of 500 ppm as an active ingredient. Cabbage leaves were immersed in the chemical solution, air-dried, and then placed in a plastic cup. Ten second instar larvae of Plutella xylostella were released into the cup, and the cup was capped. Thereafter, the cup was placed in a room at constant temperature of 25° C. The number of dead insects was examined at 6 days after the treatment, and the mortality rate was calculated by the calculation formula of Equation 1. The number of replicate is one in each test.
as §1

[4] = test system: Helicoverpa armigera; assay: Test for insecticidal activity against Helicoverpa armigera (cabbage leaf dip); settings: foliar, 144 h, 500 ppm active ingredient (wettable powder in water), cabbage leaves immersed, five hatching larvae, 25° C., 6 days after the treatment, read-out: mortality rate
Method: [Test Example 2] Test for Insecticidal Activity Against Helicoverpa armigera
as §2, with “Five hatching” for “Ten second instar”, “Helicoverpa armigera” for “Plutella xylostella”, “two” for “one”
as §1

[5] = test system: Aphis gossypii; assay: Test for control effect against Aphis gossypii (cucumber seedling dip); settings: 72 h, 500 ppm active ingredient (wettable powder in water), cucumber seedling inoculated with nymphs immersed, 25° C., 3 days after the treatment, read-out: mortality rate
Method: [Test Example 4] Test for Control Effect Against Aphis gossypii
The wettable powder prepared in accordance with Formulation Example 2 was diluted with water to a concentration of 500 ppm as an active ingredient. A cucumber seedling previously inoculated with Aphis gossypii nymphs was immersed in the chemical solution, and air-dried. The treated cucumber seedling was placed in a room at constant temperature of 25° C. The number of surviving insects was counted at 3 days after the treatment, and the mortality rate was calculated by the calculation formula of Equation 1. The number of replicate is one in each test.
as §1

SMILES | pest or weed control at 500 ppm [1] [%] | mortality at 500 ppm [2] [%] | mortality at 500 ppm [3] [%] | mortality at 500 ppm [4] [%] | mortality at 500 ppm [5] [%]
O=C(NCC(F)(F)F)c1cc(OCCCCCBr)c(F)cc1Cl [Compound A-0030, 5-[(5-bromopentyl)oxy]-2-chloro-4-fluoro-N-(2,2,2-trifluoroethyl)benzamide] | ≥ 90 |  |  |  | 
CC(CCl)COc1cc(C(=O)NCC(F)(F)F)c(Cl)cc1F (stereo not shown) [Compound A-0037, 2-chloro-5-(3-chloro-2-methylpropoxy)-4-fluoro-N-(2,2,2-trifluoroethyl)benzamide] | ≥ 90 |  |  |  | 
N#CSCCCCCOc1cc(C(=O)NCC(F)(F)F)c(Cl)cc1F [Compound A-0752, 2-chloro-4-fluoro-5-[(5-thiocyanatopentyl)oxy]-N-(2,2,2-trifluoroethyl)benzamide] |  | ≥ 90 |  |  | 
CC(COc1cc(C(=O)NCC(F)(F)F)c(Cl)cc1F)CSC#N (stereo not shown) [Compound A-0758, 2-chloro-4-fluoro-5-(2-methyl-3-thiocyanatopropoxy)-N-(2,2,2-trifluoroethyl)benzamide] | ≥ 90 |  |  |  | 
O=C(NCC(F)(F)F)c1cc(OCCCCCSC(F)(F)F)c(F)cc1Cl [Compound A-4689, 2-chloro-4-fluoro-N-(2,2,2-trifluoroethyl)-5-({5-[(trifluoromethyl)thio]pentyl}oxy)benzamide] | ≥ 90 |  |  |  | 
Cc1cc(F)c(OCCCCCSC(F)(F)F)cc1C(=O)NCC(F)(F)F [Compound A-4712, 4-fluoro-2-methyl-N-(2,2,2-trifluoroethyl)-5-({5-[(trifluoromethyl)thio]pentyl}oxy)benzamide] | ≥ 90 |  |  |  | 
Fc1cc(Cl)c(C(=S)NCC(F)(F)F)cc1OCCCCCSC(F)(F)F [Compound A-5172, 2-chloro-4-fluoro-N-(2,2,2-trifluoroethyl)-5-({5-[(trifluoromethyl)thio]pentyl}oxy)thiobenzamide] | ≥ 90 |  |  |  | 
N#CCN(CC(F)(F)F)C(=O)c1cc(OCCCCCSC(F)(F)F)c(F)cc1Cl [Compound A-6692, 2-chloro-N-(cyanomethyl)-4-fluoro-N-(2,2,2-trifluoroethyl)-5-({5-[(trifluoromethyl)thio]pentyl}oxy)benzamide] | ≥ 90 |  | ≥ 90 |  | 
CC(=O)N(CC(F)(F)F)C(=O)c1cc(OCCCCCSC(F)(F)F)c(F)cc1Cl [Compound A-6814, N-acetyl-2-chloro-4-fluoro-N-(2,2,2-trifluoroethyl)-5-({5-[(trifluoromethyl)thio]pentyl}oxy)benzamide] | ≥ 90 | ≥ 90 |  |  | 
CC(COc1cc(C(=O)NCC(F)(F)F)c(Cl)cc1F)CSC(F)(F)F (stereo not shown) [Compound B-0009, 2-chloro-4-fluoro-5-{2-methyl-3-[(trifluoromethyl)thio]propoxy}-N-(2,2,2-trifluoroethyl)benzamide] | ≥ 90 | ≥ 90 | ≥ 90 | ≥ 90 | ≥ 90
CC(COc1cc(C(=O)NCC(F)(F)F)c(Cl)cc1F)NS(=O)(=O)C(F)(F)F (stereo not shown) [Compound C-0004, 2-chloro-4-fluoro-N-(2,2,2-trifluoroethyl)-5-{2-[(trifluoromethyl)sulfonamido]propoxy}benzamide] | ≥ 90 | ≥ 90 | ≥ 90 | ≥ 90 | ≥ 90
C[C@H](COc1cc(C(=O)NCC(F)(F)F)c(Cl)cc1F)NS(=O)(=O)C(F)(F)F [Compound C-0005, (R)-2-chloro-4-fluoro-N-(2,2,2-trifluoroethyl)-5-{2-[(trifluoromethyl)sulfonamido]propoxy}benzamide] | ≥ 90 |  |  |  | 
C[C@@H](COc1cc(C(=O)NCC(F)(F)F)c(Cl)cc1F)NS(=O)(=O)C(F)(F)F [Compound C-0006, (S)-2-chloro-4-fluoro-N-(2,2,2-trifluoroethyl)-5-{2-[(trifluoromethyl)sulfonamido]propoxy}benzamide] | ≥ 90 | ≥ 90 | ≥ 90 | ≥ 90 | ≥ 90
C[C@@H](COc1cc(C(=O)NC2CC2)c(Cl)cc1F)NS(=O)(=O)C(F)(F)F [Compound C-0130, (S)-2-chloro-N-cyclopropyl-4-fluoro-5-{2-[(trifluoromethyl)sulfonamido]propoxy}benzamide] | ≥ 90 | ≥ 90 | ≥ 90 | ≥ 90 | ≥ 90
C[C@@H](COc1cc(C(=O)NC2(C#N)CC2)c(Cl)cc1F)NS(=O)(=O)C(F)(F)F [Compound C-2980, (S)-2-chloro-N-(1-cyanocyclopropyl)-4-fluoro-5-{2-[(trifluoromethyl)sulfonamido]propoxy}benzamide] | ≥ 90 | ≥ 90 | ≥ 90 |  | ≥ 90
CC(=O)N(CC(F)(F)F)C(=O)c1cc(OCC(C)NS(=O)(=O)C(F)(F)F)c(F)cc1Cl (stereo not shown) [Compound C-4214, N-acetyl-2-chloro-4-fluoro-N-(2,2,2-trifluoroethyl)-5-{2-[(trifluoromethyl)sulfonamido]propoxy}benzamide] | ≥ 90 | ≥ 90 | ≥ 90 | ≥ 90 | ≥ 90
CC(COc1cc(C(=O)NCC(F)(F)F)c(Cl)cc1F)N(C(=O)OC(C)(C)C)S(=O)(=O)C(F)(F)F (stereo not shown) [Compound C-9422, tert-butyl(1-{4-chloro-2-fluoro-5-[(2,2,2-trifluoroethyl)carbamoyl]phenoxy}propan-2-yl)[(trifluoromethyl)sulfonyl]carbamate] | ≥ 90 | ≥ 90 | ≥ 90 | ≥ 90 | ≥ 90
